Reference: US5807861A, “Amine substituted xanthinyl compounds” (Cell Therapeutics, Inc., priority 1995, dated 1998)

Key:
[1] = system: mouse femoral marrow CFU-GM; settings: in vivo
Text: Mouse spleen conditioned-medium, at a concentration of 2%, was used in this assay. The medium and semi-solid culture mix were procured from Stem Cell Technologies in Vancouver, BC.

human stromal cells [2] = assay: Comparative: PDGF-BB-induced proliferation in human stromal cells; assay type: cell-based; settings: 50 ng/ml PDGF-BB; drugs added one hour prior (FIG. 23)
Method: Human stromal cells were starved in serum-free media for 24 hours and then stimulated with 50 ng/ml PDGF-BB. The drugs were added at various concentrations one hour prior to PDGF stimulation. Tritiated thymidine was added at the time of PDGF stimulation and pulsed for 24 hours. Cells were harvested and cell proliferation measured (FIG. 23). Background counts (i.e., starved cells) were about 10% of control levels.

human stromal cells [3] = assay: PDGF-induced proliferation in human stromal cells; assay type: cell-based; settings: 50 ng/ml PDGF; compound added one hour prior; various concentrations (FIG. 1)
Method: 3506 on PDGF-induced proliferation in human stromal cells. Procedurally, human stromal cells were starved in serum-free media for 24 hours and then stimulated with 50 ng/ml PDGF. Compound no. 3506 was added at various concentrations one hour prior to PDGF stimulation and pulsed for 24 hours. Cells were harvested and cell proliferation measured having background counts (i.e., starved cells) at about 10% of control levels.

thymocytes = assay: thymocyte proliferation co-stimulated with Con A and IL-2; assay type: cell-based, mouse (Balb/C); settings: co-stimulated with Con A and IL-2, various concentrations
Method: 3506, 3556, 3563, 3576, 3581, 3582 and 3584 on thymocyte proliferation and activation, co-stimulated with Concanavalin A (Con A) and interleukin-2 (IL-2), at various concentrations of the compounds (IC50). Con A and IL-2 together stimulate T cell proliferation and differentiation.
Thymuses, obtained from normal, female Balb/C mice, were dissociated and plated into 96-well plates at a density of 2×10^5 cells/well. Con A ([…]) and IL-2 (15 U/ml) were added to the wells. The cells were incubated for 4 days at 37° C. On day 4, the cells were pulsed with tritiated thymidine and incubated for an additional 4 hours. Incorporated tritiated thymidine of harvested cells was determined in a liquid scintillation counter. Results plotted as dose concentration versus proliferation for inventive compounds nos. 3506, 3556, 3563, 3576, 3581, 3582 and 3584 are shown in FIGS. 6 (3506), 7 (3556), 8 (3563), 9 (3576), 10 (3581 and 3582) and 11 (3584). Respective concentrations of inventive compound (shown in the figures) were added two hours prior to Con A and IL-2 activation. Background counts were less than 200 cpm.

[4] = system: mouse bone marrow cells (CFU-GM); assay: CFU-GM colony assay, effect on normal mouse bone marrow cells; assay type: cell-based; settings: for cytotoxicity to normal mouse marrow cells: 8 h incubation, 7 days colony growth; for effect on normal cells compared to known chemotherapeutic compounds: in vitro, vs vinblastine, 5-fluorouracil, doxorubicin or cisplatinum
Text: This example illustrates a method for examining an effect of the inventive compounds, showing potential as cancer therapies, on normal cells. This assay has been used clinically to evaluate recovery of patients' marrow following chemotherapy or radiation. In this specific example, inventive compounds nos.
Mouse bone marrow cells are useful in this assay because they produce colonies, which can later be counted, in culture. The colonies are called colony forming unit-granulocyte macrophage (CFU-GM) and depend on a source of colony stimulating factor for growth.
Cells were cultured with inventive compounds nos. 3563, 3576, 3581, 3584 and 4500, to comparatively evaluate an effect on normal cells of inventive compounds identified as potential cancer therapies. Procedurally, cells were incubated for 8 hours with various concentrations of these compounds. A negative control without any compound was simultaneously prepared. After 8 hours, the incubated cells were washed thoroughly and a consistent number were subsequently plated to obtain CFU-GM. Colonies were permitted to grow for 7 days at 37° C., in 5% CO2. After 7 days of growth, colony growths were counted microscopically. Data obtained in this assay for inventive compounds nos. 3563, 3576, 3581, 3584 and 4500 are plotted in FIGS. 12, 13, 14, 15 and 16, respectively. The data in the figures are shown to compare the colonies counted for cells incubated with varying concentrations of the compounds tested against the negative control, without compound. At concentrations ranging from 5 to 30 μM, more colonies existed for cells incubated with the inventive potential cancer compound than with known, chemotherapeutic agents. Compound no.

[5] = system: polymorphonuclear leukocytes; settings: U.S. Pat. No. 4,636,507; cited from earlier work
certain cytokines = settings: U.S. Pat. Nos. 4,965,271 and 5,096,906; cited from earlier work
[6] = system: tumor necrosis factor (TNF); settings: PTX recipients; cited from earlier work
PAPH = settings: specific activation pathway that does not involve PI; cited from earlier work
Balb/3T3 cells = assay: Balb/3T3 viability (cytotoxicity) assay with BCECF; assay type: cell-based; settings: BCECF fluorescence; concentrations shown in FIGS. 1, 2 and 4; control value of 100%
Method: In conjunction with the Balb/3T3 proliferation assay, a related viability assay was conducted to assess the cytotoxicity of compounds which inhibit proliferation in this system. The assay protocol was identical to that performed above except that tritiated thymidine was not added after the 24 hour incubation with PDGF. In this cytotoxicity assay, after incubating the cells, a 10 μM solution of BCECF was added and the cells were incubated for 30 minutes at 37° C. Following this incubation, BCECF was replaced with PBS and the plate read for fluorescence in a Millipore cytofluorometer. Data obtained was plotted as a percent of control versus concentration of inventive compound tested. FIGS. 3 and 5 represent the results of this viability assay, for compounds nos. 3556 and 4500, respectively.

293-EBNA cells = assay: 293-EBNA cell viability (alamarBlue); assay type: cell-based
Method: The effect of respective inventive compounds on the viability of 293-EBNA cells was measured by a colorimetric assay that uses the alamarBlue® dye (purchased from Alamar Biosciences, Inc.) to report cell proliferation, viability and cytotoxicity. This dye is an oxidation-reduction (Redox) indicator that changes color in response to chemical reduction of growth medium resulting from cell growth. The general procedure involves adding alamar-Blue® in an amount equal to 10% of the culture volume, returning the culture to incubator for four hours, and measuring the absorbance at 570 nm after subtraction of background absorbance at 600 nm.

JR-CSF strain of HIV-1 = assay: JR-CSF HIV-1 infection of human peripheral blood lymphocytes (p24 antigen ELISA); assay type: cell-based, HIV-1 (in human PBL); settings: 10 and 20 μM
Method: In a protocol for infecting a PBL cell suspension, JR-CSF HIV-1 was clarified at low-speed centrifugation (2,000-3,000 rpm) or filtration and stored in aliquots at -70° C. To maintain consistent titers, HIV-1 aliquots were not subjected to repeated freezing and thawing and any remainder was discarded. Virus aliquots were thawed at room temperature or under cold running water for more rapid thawing and maintained in ice after thawing. Just prior to infection of PBL cells, the supernatant or dilution were warmed to room temperature.
Human PBL cells taken from a suitable donor were centrifuged down at 1000 rpm for 5-10 minutes at room temperature. While cells were spinning, the virus inoculum was prepared in medium by adding 10 μg/ml Polybrene®. The centrifuged cells were resuspended in virus inoculum, using 1 ml of virus inoculum per 10^7 cells. A more efficient HIV-1 infection is obtained with smaller amounts of inoculum. The cells were incubated at 37° C. in the presence of virus inoculum for 2 hours, shaking the suspension every half hour. After 2 hours, the suspension was spun down, the virus inoculum removed and the cells were washed with 10 ml of fresh media.
The infected cells, inoculated with virus at a concentration of 10 ng virus/10^6 PBL, were washed and resuspended in growth medium ([…] RPMI/20 % FBS/10 units/ml IL-2). […]

Question: For `O=c1[nH]cc(F)c(=O)[nH]1` [5-fluorouracil], which “CFU-GM detectable in mouse femoral marrow” value [1] is on record?
Answer: no CFU-GM were detectable

Question: For `CC(=O)CCCCCCn1c(=O)c2c(ncn2C)n(C)c1=O` [A, 1-(7-oxooctyl)-3,7-dimethylxanthine], which “concentrations at which activity on PDGF-induced proliferation is apparent” value (human stromal cells [2]) is on record?
Answer: millimolar concentrations

Question: For `CC(CCCCn1c(=O)c2c(ncn2C)n(C)c1=O)N(C)C` (centres unmarked) [B, 1-(5-dimethylaminohexyl)-3,7-dimethylxanthine], which “concentrations at which activity on PDGF-induced proliferation is apparent” value (human stromal cells [2]) is on record?
Answer: millimolar concentrations

Question: Which results are given for `CCCCCCCCCCCNCCCCCCn1c(=O)c2c(ncn2C)n(C)c1=O` [Compound no. 3506]?
Answer: inhibition of PDGF-induced proliferation (human stromal cells [3]): inhibition of PDGF-induced proliferation; effect on thymocyte proliferation and activation (thymocytes): inhibitive effect

Question: Which “effect on thymocyte proliferation and activation” value (thymocytes) does the source give for `CCCCCCCCCCCCNCCCCCCCCCCCn1c(=O)c2c(ncn2C)n(C)c1=O` [Compound no. 3563] here?
Answer: inhibitive effect

Question: And the “cytotoxicity to normal mouse marrow cells” value [4]?
Answer: most cytotoxic to proliferative potential of the mouse marrow cells

Question: What about the “effect on normal cells compared to known chemotherapeutic compounds” value [4] of the same compound?
Answer: less deleterious to normal cells

Question: Which “chemotaxis in polymorphonuclear leukocytes responding to chemotaxis stimulation” value [5] does the source give for `CC(O)CCCCn1c(=O)c2c(ncn2C)n(C)c1=O` (centres unmarked) [M1, 1-(5-hydroxyhexyl)-3,7-dimethylxanthine] here?
Answer: enhance chemotaxis

Question: For `CC(=O)CCCCn1c(=O)c2c(ncn2C)n(C)c1=O` [PTX, 1-(5-oxohexyl)-3,7-dimethylxanthine], which “chemotaxis in polymorphonuclear leukocytes responding to chemotaxis stimulation” value [5] is on record?
Answer: enhance chemotaxis

Question: What about the “effect on activity of certain cytokines to affect chemotaxis” value (certain cytokines) of the same compound?
Answer: inhibit activity of certain cytokines

Question: And the “TNF levels in normal volunteers” value [6]?
Answer: TNF levels were higher

Question: What about the “effect on PAPH” value (PAPH) of the same compound?
Answer: blocks PAPH

Question: Which “cytotoxicity at the concentrations that inhibit proliferation” value (Balb/3T3 cells) does the source give for `CCCCCCCCNCCCCCCCCCCCn1c(=O)c2c(ncn2C)n(C)c1=O` [compound 3556, 1-(11-octylaminoundecyl)-3,7-dimethylxanthine] here?
Answer: not cytotoxic to any cells

Question: And the “effect on thymocyte proliferation and activation” value (thymocytes)?
Answer: inhibitive effect

Question: And the “concentration at which cytotoxicity becomes significant” value (293-EBNA cells)?
Answer: > 10 µM

Question: What about the “effect on HIV-1 viral infection” value (JR-CSF strain of HIV-1) of the same compound?
Answer: virtually eliminated viral infection

Question: Which results are given for `CCCCCCCCCCCCN(C)CCCCCCCCCCCn1c(=O)c2c(ncn2C)n(C)c1=O` [compound 3576]?
Answer: effect on thymocyte proliferation and activation (thymocytes): inhibitive effect; effect on normal cells compared to known chemotherapeutic compounds [4]: less deleterious to normal cells

Question: Which “effect on thymocyte proliferation and activation” value (thymocytes) does the source give for `CCCCCCCCCCNCCCCCCCCCCCn1c(=O)c2c(ncn2C)n(C)c1=O` [compound 3581] here?
Answer: inhibitive effect

Question: And the “effect on normal cells compared to known chemotherapeutic compounds” value [4]?
Answer: less deleterious to normal cells

Question: Which “effect on thymocyte proliferation and activation” value (thymocytes) does the source give for `CCCCCCCCCCCCCCNCCCCCCCCCCCn1c(=O)c2c(ncn2C)n(C)c1=O` [compound 3582] here?
Answer: inhibitive effect

Question: For `CCCCCCCCCCCCCCCCNCCCCCCCCCCCn1c(=O)c2c(ncn2C)n(C)c1=O` [compound 3584], which “effect on thymocyte proliferation and activation” value (thymocytes) is on record?
Answer: inhibitive effect

Question: What about the “effect on normal cells compared to known chemotherapeutic compounds” value [4] of the same compound?
Answer: less deleterious to normal cells

Question: With `CCCCCCN(CCCCCC)CCCCCCCCCCCn1c(=O)c2c(ncn2C)n(C)c1=O` [compound 3590] as the compound, how does the “concentration at which there is still little cytotoxicity” value (293-EBNA cells) read?
Answer: > 32 µM

Question: Which “concentration at which there is still little cytotoxicity” value (293-EBNA cells) does the source give for `COc1cc(CNCCCCCCCCCCCn2c(=O)c3c(ncn3C)n(C)c2=O)cc(OC)c1OC` [compound 3593] here?
Answer: > 32 µM

Question: What does the source list for `CCCCCCN(C)CCCCCCCCCCCn1c(=O)c2c(ncn2C)n(C)c1=O` [compound 4500]?
Answer: cytotoxicity at the concentrations that inhibit proliferation (Balb/3T3 cells): not cytotoxic to any cells; cytotoxicity to normal mouse marrow cells [4]: virtually no toxicity at elevated concentrations for the normal mouse marrow cells; concentration at which there is still little cytotoxicity (293-EBNA cells): > 32 µM
